This note sets out measurements from patent US7786147B2, “Analogs of choline for neuroprotection and cognitive enhancement in neurodegenerative disorders” (Medical College of Georgia Research Institute., priority 2001, dated 2010).

Test [1] relates to differentiated PC-12 cells. In words: MTT cell viability (neuroprotection) assay after neurotrophic factor withdrawal. The following applies: for potency in neuroprotection relative to choline and its ethyl analogs (in words): effects at lowest dose 0.1 mM not much reduced from 10 mM. Set-up: neuroprotective action after pretreatment with mecamylamine: dose or concentration left out as unconfirmed. The class given is cell-based. The procedure: Cell Culture: PC12 cells were maintained in 150-cm^2 tissue-culture flasks in Dulbecco's Modified Eagles medium containing 7% horse serum, 7% fetal calf serum, 1% non-essential amino-acids and 1% streptomycin (DMEM). The cells were incubated at 37 C in a 5% CO2-enriched, humidified atmosphere. To attain maximum differentiation, the cells were maintained in DMEM.NGF medium for 7 days, with the medium being changed every 2 or 3 days.
Assay for Cell viability. Cells were dissociated by trituration and plated at 1×10^4 cells per well on poly-L-lysine coated 96 well plates containing DMEM.NGF media. Next, the differentiated cells were incubated with the test drug at different concentrations for the specified period of time. Cell viability (cytotoxicity) was determined using the Cell Titer 96 non-radioactive cell proliferation/cytotoxicity assay kit (Promega), which is based on the cellular conversion of a 3-(4,5-dimethylthiazol-2-yl)-2,5-diphenyltetrazolium bromide (MTT) into a formazan product which can be detected spectrophotometrically. After deprivation of cells from NGF and serum, the medium was aspirated and 15 l of dye solution dissolved in DMEM was added. After an additional 4 hr incubation at 37 C, 100 l of solubilization/stop solution was added and the absorbance of solubilized MTT formazan products was measured at 570 nm.
Differentiated PC-12 cells were deprived of neurotrophic factors for 24 hr to promote cytotoxicity. Cell viability was measured by the MTT assay under control conditions, and in cultures in which a choline analog was introduced into the medium at the time of neurotrophic factor withdrawal. […] Choline and its mono-, di-, and tri-ethyl analogs produced a concentration dependent and intermediate level of neuroprotection improving cell viability by up to 40% of baseline.

Test [2] deals with 7 nicotinic acetylcholine receptor (Rattus norvegicus, UniProt Q05941). It counts as binding. The following applies: PC-12 cells; FIG. 8.
7 nicotinic acetylcholine receptor, sequence (Q05941 23-502): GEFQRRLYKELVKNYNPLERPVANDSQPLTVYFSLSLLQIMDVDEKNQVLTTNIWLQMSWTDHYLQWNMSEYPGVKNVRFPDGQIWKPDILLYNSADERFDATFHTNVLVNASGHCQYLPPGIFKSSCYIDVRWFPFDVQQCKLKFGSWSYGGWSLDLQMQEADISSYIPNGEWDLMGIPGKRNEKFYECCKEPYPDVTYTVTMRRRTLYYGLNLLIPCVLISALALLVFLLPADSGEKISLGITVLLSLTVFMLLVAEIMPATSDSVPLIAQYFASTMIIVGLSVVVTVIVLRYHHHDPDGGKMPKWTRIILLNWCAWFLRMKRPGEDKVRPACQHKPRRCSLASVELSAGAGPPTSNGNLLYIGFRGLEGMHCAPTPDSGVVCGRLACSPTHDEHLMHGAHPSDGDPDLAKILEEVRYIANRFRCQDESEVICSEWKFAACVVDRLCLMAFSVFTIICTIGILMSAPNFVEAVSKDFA
For test [3], the system named is differentiated PC-12 cells. The test can be described thus: Cytoprotective effect (% Protection) with exposure 24 hours prior to growth factor withdrawal. As to conditions: exposure 24 hours prior to removal of NGF and serum; FIGS. 11, 13A and B. It counts as cell-based. The procedure:
The above-described differentiated PC-12 cells were exposed to the indicated concentrations (see FIGS. 13A and B) of the FIG. 12 choline analogs 24 hours prior to growth factor withdrawal (removal of nerve growth factor, and changing from serum-containing to serum-free medium). % Protection values were calculated as the ratio of ELISA-based absorbance values for [protected cells−deprived cells (no analog):control (non-deprived) cells−deprived cells]×100. Each data point in FIG. 13 represents data obtained from two separate assays each performed with 5-8 replicates per point.

As for `CC(=O)OCC[N+]1(C)CCCC1` [acetylpyrrolidinecholine], the “potency in neuroprotection relative to choline and its ethyl analogs (in words)” value in test [1] is “more potent”.

As for `C[N+](C)(CCO)Cc1ccccc1.[Br-]` [benzylcholine], the “displacement of cell surface [125I]-bungarotoxin binding (in words)” value in test [2] was “failed to significantly interact”. The “effect on cell viability (in words)” value in test [1] (PC-12 cells deprived of neurotrophic factors for 24 hr, FIG. 5) is listed as “did not affect cell viability”.

`CN1CCCC1c1cccnc1` (stereo not drawn) [nicotine]: in test [3], the “cytoprotective effect, % Protection concentration-effect curve (in words)” value is “biphasic”.

`C[N+]1(CCO)CCCC1` [pyrrolidinecholine]: in test [2], the “affinity for the [125I]-bungarotoxin site relative to choline (in words)” value is listed as “slightly more potent affinity” and the “displacement of cell surface [125I]-bungarotoxin binding (in words)” value is reported as “fully displaced”. Further, the “neuroprotective action after pretreatment with MLA” value in test [1] (MLA (10 nM) pretreatment, FIGS. 9 and 10) is “blocked”. Further, in test [1], the “potency in neuroprotection relative to choline and its ethyl analogs (in words)” value is reported as “more potent”. The “neuroprotective action after pretreatment with mecamylamine” value in test [1] (mecamylamine pretreatment, FIGS. 9 and 10) is on record as “blocked”.
